“Also recorded” adds a separate entry of the source. Read-outs that look alike come from different tables or passages of the source.
How the values were obtained:
isolated islet cells = experiment: Insulin secretion assay, isolated islet cells; assay type: cell-based; conditions: for increase in insulin stimulation: 10 nM, high glucose conditions (15 mM)
Method: One example of such an assay is as follows: prior to glucose-induced insulin secretion, cells were cultured for two hours in RPMI containing 3 mM glucose without serum. Cells were then washed and preincubated for 30 min in modified Krebs-Ringer bicarbonate buffer (KRB) containing (in mM): 119 NaCl, 4.6 KCl, 5 NaHCO3, 2 CaCl2, 1 MgSO4, 0.15 Na2HPO4, 0.4 KH2PO4, 20 HEPES, 2 glucose, 0.05% BSA, pH 7.4. This was followed by 30 min incubation in media containing either 3 mM glucose (to simulate low glucose conditions) or 15 mM glucose (to simulate high glucose conditions). Media are treated with varying concentrations of compound (1 nM and 10 nM). Media was collected and stored at −20° C. for insulin measurement. Insulin was measured by ELISA.
In both graphs, insulin is measured in (pictogram/ml). […] The amount of insulin secretion stimulated is dependent on the concentration of compound, incubation time, and cell-type. […] This distinguishes the effect of LNK-754 from sulfonyl urea compounds, the current standard oral anti-diabetic drug which increases insulin secretion under all conditions (not desired).

isolated islets / INS1 = experiment: Oxygen consumption, Seahorse XF24 bioenergetic assay; assay type: cell-based; conditions: 1 nM
Method: Impaired mitochondrial function is shown by a decreased rate of oxygen consumption. […] The effect of LNK-754 at 1 nM and 10 nM doses on oxygen consumption was determined. Oxygen consumption in INS1 was measured using a Seahorse XF24 bioenergetic assay. Assays have been previously described in detail (See, Wu M, et al. Am J Physiol Cell Physiol 2007; 292:C125-36).

GGTase = GGTase (Homo sapiens, UniProt P49354+P53609); experiment: GGTase inhibitory activity, general statement; assay type: biochemical; conditions: selective FTase inhibitors
[1] = 3T3H-ras (61 L) xenograft tumor-bearing athymic mouse, continuous infusion 7 days, PK/PD; assay type: in vivo; conditions: intravenous, calculated from minimal continuous serum level of 100 ng/ml, read-out: minimal efficacious AUC
From the text: FIG. 3 provides pharmacokinetic and pharmacodynamic data for continuously infused LNK-754 (CP-609,754) in a 3T3H-ras (61 L) xenograft tumor-bearing athymic mouse (7 day treatment). […] From Pfizer Investigational New Drug Application for CP-609,754, Section 8, Pharmacology and Toxicology, dated Nov. 19, 1999. See also Moulder et al., Clinical Cancer Research 10:7127-7135, Nov. 1, 2004.
Further data supporting the stark difference in dosing levels for efficacy in oncology and synucleinopathies is shown in FIG. 3 and Table 2A below. In the experiment shown in FIG. 3, a xenograft model is once again used, but there is continuous infusion of LNK-754-TS, and thus a steady state concentration of drug in the plasma and tissues.
(§1) In the experimental data represented in Table 2A, a different method of drug delivery is used (oral) than in the experiment represented in FIG. 3. The best way to compare the relative coverage of the two delivery methods (oral and continuous infusion) is by comparing area-under-the-curve (AUC) values. We can compare the calculated AUC values for the continuous infusion oncology study presented in FIG. 3 and the AUC values associated with the synuclein model doses in the table. […] The AUCs of orally dosed LNK-754-TS at 0.9 mg/kg and at 0.09 mg/kg QD are 34.6 and […], respectively.

[2] = Pharmacokinetics of LNK-754-TS in mice, oral; assay type: in vivo, mouse; conditions: for MRT inf: read-out: MRT(0-∞)
From the text: as §1
The pharmacokinetic profiles of LNK-754-TS and Zarnestra® were analyzed using methods known in the art. The results are shown in FIGS. 13-14 and the tables below.

Ras = experiment: Inhibition of Ras farnesylation in SH-SY5Y cells; assay type: cell-based, human; conditions: continuous exposure over long periods, average
aged non-transgenic rats = experiment: Morris water maze in aged non-transgenic rats; assay type: in vivo, rat; conditions: aged rats 22 months, 0.3 mg/kg and 0.9 mg/kg once every 24 hours
From the text: Morris water maze (MWM) analysis of cognitive performance: In APP/PS1 transgenic animals, swimming behavior in a Morris Water Maze was videotaped and analyzed (Ethovision, Noldus, Wageningen, Netherlands). For mice, a place navigation test was used to locate the hidden platform in five blocks of three trials over three consecutive days. Each trial consists of a forced swim test of maximum 120 seconds, followed by 60 seconds of rest. The time each mouse needed for location of the platform was measured. For rats, a cued learning phase was first conducted, consisting of 3 trials per day for 5 days, using a visible platform of varying location. Each trial consisted of a forced swim test of maximum 60 seconds, followed by 10 minutes of rest. The time and path length each rat needed to locate the platform was measured.
In order to rule out the possibility that the rapid observed improvement in cognition described above arose from an alternative, transgene-independent mechanism, aged non-transgenic rats (22 months old) were treated with LNK-754-TS (0.3 mg/kg and 0.9 mg/kg, once every 24 hours) and their cognitive performance was measured by MWM and compared to that of younger rats (3 months old) of the same strain.

Aβ = experiment: h-APPs1 transgenic mouse, Aβ levels; assay type: in vivo; conditions: 0.9 mg/kg once every 24 hr, three months
From the text: Finally, it is important to note that LNK-754-TS had no effect on APP processing and secretion in a cell culture model of pathogenic Aβ production (Selkoe, D. J., et al. Ann N Y Acad Sci 777, 57-64 (1996)).

[3] = test system: 3T3H-ras (61 L) xenograft; conditions: cited from earlier work
[4] = C57BL/6, mouse, in vivo, po, 9 mg/kg, Group 5 (9 mg/kg SID), C57BL/6 mice, oral
[5] = C57BL/6, mouse, in vivo, po, 9 mg/kg, Group 6 (9 mg/kg BID), C57BL/6 mice, oral
[6] = C57BL/6, mouse, in vivo, po, 9 mg/kg, Group 9 (9 mg/kg Day 5), C57BL/6 mice, oral

Q: With `C#Cc1cccc(-c2cc(=O)n(C)c3ccc([C@](O)(c4ccc(Cl)cc4)c4cncn4C)cc23)c1` [LNK-754, (R)-6-[(4-chlorophenyl)-hydroxyl-(1-methyl-1-H-imidazol-5-yl)-methyl]-4-(3-ethynylphenyl)-1-methyl-2-(1H)-quinonlinone] as the molecule, how does the “increase in insulin stimulation” value (isolated islet cells; 2.5 days of incubation) read?
A: ~75%

Q: And the “increase in insulin stimulation” value (isolated islet cells; 3 days of incubation)?
A: ~55%

Q: What about the “insulin secretion under basal glucose conditions” value (isolated islet cells; basal glucose (3 nM)) of the same molecule?
A: not under basal glucose conditions; also recorded: does not affect basal insulin secretion

Q: And the “oxygen consumption (OCR)” value (isolated islets / INS1)?
A: increases oxygen consumption

Q: What about the GGTase inhibitory activity (GGTase) of the same molecule?
A: little to no GGTase inhibitory activity

Q: For `C#Cc1cccc(-c2cc(=O)n(C)c3ccc([C@](O)(c4ccc(Cl)cc4)c4cncn4C)cc23)c1` [LNK-754-TS, (R)-6-[(4-chlorophenyl)-hydroxyl-(1-methyl-1-H-imidazol-5-yl)-methyl]-4-(3-ethynylphenyl)-1-methyl-2-(1H)-quinonlinone (2S, 3S)-dihydroxybutanedioate], which AUC [1] is on record?
A: ~2400 ng·h/mL

Q: What about the AUC ([2]; 0.9 mg/kg oral, QD day 1, 5% beta-cyclodextrin, mice) of the same molecule?
A: 34.6 ng·h/mL

Q: What about the Cmax ([2]; C57BL/6, mouse, in vivo, po, 0.09 mg/kg, 0.09 mg/kg oral, QD day 1, 5% beta-cyclodextrin, mice) of the same molecule?
A: 0.61 ng/mL

Q: And the AUC ([2]; C57BL/6, mouse, in vivo, po, 0.09 mg/kg, 0.09 mg/kg oral, QD day 1, 5% beta-cyclodextrin, mice, read-out: AUC)?
A: 0.63 ng·h/mL

Q: What about the Cmax ([2]; C57BL/6, mouse, in vivo, po, 0.9 mg/kg, 0.9 mg/kg oral, QD day 1, 5% beta-cyclodextrin, mice) of the same molecule?
A: 31.1 ng/mL

Q: What about the AUC ([2]; C57BL/6, mouse, in vivo, po, 0.9 mg/kg, 0.9 mg/kg oral, QD day 1, 5% beta-cyclodextrin, mice, read-out: AUC) of the same molecule?
A: 34.6 ng·h/mL

Q: And the AUC ([2]; C57BL/6, mouse, in vivo, po, 9 mg/kg, 9 mg/kg BID oral, mice (text summary of day 1 and day 5), read-out: AUC)?
A: 2000 to 2600 ng·h/mL

Q: And the Cmax ([2]; C57BL/6, mouse, in vivo, po, 9 mg/kg, 9 mg/kg oral, BID day 1, 20% beta-cyclodextrin, mice)?
A: 1380 ng/mL

Q: And the AUC ([2]; C57BL/6, mouse, in vivo, po, 9 mg/kg, 9 mg/kg oral, BID day 1, 20% beta-cyclodextrin, mice, read-out: AUC)?
A: 2100 ng·h/mL

Q: And the Cmax ([2]; C57BL/6, mouse, in vivo, po, 9 mg/kg, 9 mg/kg oral, BID day 5, 20% beta-cyclodextrin, mice)?
A: 1480 ng/mL

Q: What about the AUC ([2]; C57BL/6, mouse, in vivo, po, 9 mg/kg, 9 mg/kg oral, BID day 5, 20% beta-cyclodextrin, mice, read-out: AUC) of the same molecule?
A: 2630 ng·h/mL

Q: What about the AUC(0-inf) [2, 4] of the same molecule?
A: 752 ng·h/mL

Q: And the AUC(0-t) [2, 4]?
A: 730 ng·h/mL

Q: And the Cmax [2, 4]?
A: 318 ng/mL

Q: What about the half-life [2, 4] of the same molecule?
A: 1.5 h

Q: What about the MRT inf [2, 4] of the same molecule?
A: 2.38 h

Q: And the AUC(0-inf) [2, 5]?
A: 2290 ng·h/mL

Q: And the AUC(0-t) [2, 5]?
A: 2100 ng·h/mL

Q: What about the Cmax [2, 5] of the same molecule?
A: 1390 ng/mL

Q: And the half-life [2, 5]?
A: 5.04 h

Q: And the MRT inf [2, 5]?
A: 2.67 h

Q: What about the AUC(0-inf) [2, 6] of the same molecule?
A: 2630 ng·h/mL

Q: What about the AUC(0-t) [2, 6] of the same molecule?
A: 2630 ng·h/mL

Q: What about the Cmax [2, 6] of the same molecule?
A: 1490 ng/mL

Q: What about the half-life [2, 6] of the same molecule?
A: 0.62 h

Q: And the MRT inf [2, 6]?
A: 1.43 h

Q: And the Tmax ([2]; C57BL/6, mouse, in vivo, 0.09 mg/kg oral, QD day 1, 5% beta-cyclodextrin, mice)?
A: 0.5 h

Q: And the Tmax ([2]; C57BL/6, mouse, in vivo, 0.9 mg/kg oral, QD day 1, 5% beta-cyclodextrin, mice)?
A: 0.5 h

Q: What about the Tmax ([2]; C57BL/6, mouse, in vivo, 9 mg/kg oral, BID day 1, 20% beta-cyclodextrin, mice) of the same molecule?
A: 1 h

Q: And the Tmax ([2]; Group 5 (9 mg/kg SID), C57BL/6 mice, oral)?
A: 1 h

Q: What about the Tmax ([2]; Group 6 (9 mg/kg BID), C57BL/6 mice, oral) of the same molecule?
A: 1 h

Q: What about the Tmax ([2]; Group 9 (9 mg/kg Day 5), C57BL/6 mice, oral) of the same molecule?
A: 1 h

Q: And the IC50 (Ras)?
A: 1 nM

Q: And the “cognitive performance, Morris water maze (place learning, probe tests)” value (aged non-transgenic rats)?
A: no significant cognitive improvement

Q: What about the “amounts of more soluble Aβ42 species” value (Aβ) of the same molecule?
A: small reduction

Q: And the “cortical Aβ immunoreactivity and Aβ in insoluble fractions” value (Aβ)?
A: did not significantly reduce

Q: And the “efficacy against tumor growth” value ([3]; 25 mg/kg, lowest dose tested)?
A: borderline efficacy

Q: What about the “dose required for suppression of tumor growth” value ([3]; 10 days BID, 3T3H-ras (61 L) xenograft athymic mouse) of the same molecule?
A: at least 25 mg per kg
